Legend:
Assay in all cases: combination Emax (second highest fraction inhibited in the dose matrix, 72 h); higher = more inhibition; extreme values may be limits of the assay
[1] = tested on: COR-L279 (Small Cell Lung Carcinoma)
Summary of the method: (§1)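 Cell lines grown in DMEM/F12 or RPMI with 10% FBS were plated in 1536-well plates and held 24 hours at 37°C, 5% CO2 before 72 hours of exposure to two-drug dose matrices, with DMSO typically at 0.2%. CellTiter-Glo 2.0 luminescence gave viability, which was converted to inhibition. Vehicle wells were set to 0 and blank wells to 1. Combination Emax is the second-highest inhibition in the matrix, and Bliss excess is the observed combination effect minus the expected EA + EB − EA·EB, where EA and EB are the single-agent effects.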

[2] = tested on: CW-2 (Colorectal Carcinoma)
Summary of the method: as §1

[3] = tested on: DAN-G (Pancreatic Carcinoma)
Summary of the method: as §1

[4] = tested on: DMS-114 (Small Cell Lung Carcinoma)
Summary of the method: as §1

[5] = tested on: G-361 (Melanoma)
Summary of the method: as §1

[6] = tested on: KMS-12-BM (Plasma Cell Myeloma)
Summary of the method: as §1

[7] = tested on: M059J (Glioblastoma)
Summary of the method: as §1

[8] = tested on: MN-60 (B-Lymphoblastic Leukemia)
Summary of the method: as §1

[9] = tested on: MOG-G-CCM (Low Grade Glioma)
Summary of the method: as §1

[10] = tested on: MOLM-13 (Acute Myeloid Leukemia)
Summary of the method: as §1

[11] = tested on: NCCIT (Other Solid Carcinomas)
Summary of the method: as §1

[12] = tested on: NCI-H2731 (Mesothelioma)
Summary of the method: as §1

[13] = tested on: NCI-H3122 (Lung Adenocarcinoma)
Summary of the method: as §1

[14] = tested on: NCI-H526 (Small Cell Lung Carcinoma)
Summary of the method: as §1

[15] = tested on: NCI-H661 (Non-Small Cell Lung Carcinoma)
Summary of the method: as §1

[16] = tested on: NCI-H929 (Plasma Cell Myeloma)
Summary of the method: as §1

[17] = tested on: PC-3 (Prostate Carcinoma)
Summary of the method: as §1

[18] = tested on: SK-GT-2 (Gastric Carcinoma)
Summary of the method: as §1

[19] = tested on: ST486 (Burkitt's Lymphoma)
Summary of the method: as §1

[20] = tested on: SU-DHL-5 (B-Cell Non-Hodgkin's Lymphoma)
Summary of the method: as §1

SMILES: CN(CCO)CC[C@H](CSc1ccccc1)Nc1ccc(S(=O)(=O)NC(=O)c2ccc(N3CCC([C@@H](O)c4ccccc4-c4ccc(Cl)cc4)CC3)cc2)cc1S(=O)(=O)C(F)(F)F [AZD4320] + CN(C)CCCOc1ccc(-c2ccc3ncc4c(c3c2)n(C2CCOCC2)c(=O)n4C)cn1 [AZD0156] (first compound max 1 µM, 7x7, partner max 1 µM)
- combination Emax [1]: 0.983
- combination Emax [2]: 0.136
- combination Emax [3]: 0.346
- combination Emax [4]: 0.12
- combination Emax [5]: 0.288
- combination Emax [6]: 1
- combination Emax [7]: 0.366
- combination Emax [8]: 0.263
- combination Emax [9]: 0.474
- combination Emax [10]: 1
- combination Emax [11]: 0.174
- combination Emax [12]: 0.109
- combination Emax [13]: 0.209
- combination Emax [14]: 0.925
- combination Emax [15]: 0.0831
- combination Emax [16]: 0.681
- combination Emax [17]: 0.241
- combination Emax [18]: 0.154
- combination Emax [19]: 0.911
- combination Emax [20]: 0.512

SMILES: CN(CCO)CC[C@H](CSc1ccccc1)Nc1ccc(S(=O)(=O)NC(=O)c2ccc(N3CCC([C@@H](O)c4ccccc4-c4ccc(Cl)cc4)CC3)cc2)cc1S(=O)(=O)C(F)(F)F [AZD4320] + C[C@@H]1COCCN1C2=NC(=NC(=C2)C3(CC3)[S@](=N)(=O)C)C4=C5C=CNC5=NC=C4 [AZD6738] (first compound max 1 µM, 7x7, partner max 10 µM)
- combination Emax [1]: 1
- combination Emax [2]: 0.49
- combination Emax [3]: 0.765
- combination Emax [4]: 0.592
- combination Emax [5]: 0.629
- combination Emax [6]: 1
- combination Emax [7]: 0.774
- combination Emax [8]: 0.51
- combination Emax [9]: 0.783
- combination Emax [10]: 1
- combination Emax [11]: 0.727
- combination Emax [12]: 0.328
- combination Emax [13]: 0.675
- combination Emax [14]: 0.977
- combination Emax [15]: 0.674
- combination Emax [16]: 0.739
- combination Emax [17]: 0.584
- combination Emax [18]: 0.633
- combination Emax [19]: 0.969
- combination Emax [20]: 1

SMILES: CN(CCO)CC[C@H](CSc1ccccc1)Nc1ccc(S(=O)(=O)NC(=O)c2ccc(N3CCC([C@@H](O)c4ccccc4-c4ccc(Cl)cc4)CC3)cc2)cc1S(=O)(=O)C(F)(F)F [AZD4320] + C[C@@H](Nc1cc(F)cc(F)c1)c1cc(C(=O)N(C)C)cc2c(=O)cc(N3CCOCC3)oc12 [AZD8186] (first compound max 1 µM, 7x7, partner max 3 µM)
- combination Emax [1]: 1
- combination Emax [2]: 0.149
- combination Emax [3]: 0.344
- combination Emax [4]: 0.362
- combination Emax [5]: 0.332
- combination Emax [6]: 1
- combination Emax [7]: 0.306
- combination Emax [8]: 0.226
- combination Emax [9]: 0.728
- combination Emax [10]: 1
- combination Emax [11]: 0.329
- combination Emax [12]: 0.552
- combination Emax [13]: 0.365
- combination Emax [14]: 0.973
- combination Emax [15]: 0.308
- combination Emax [16]: 0.792
- combination Emax [17]: 0.437
- combination Emax [18]: 0.237
- combination Emax [19]: 0.887
- combination Emax [20]: 0.99

SMILES: CN(CCO)CC[C@H](CSc1ccccc1)Nc1ccc(S(=O)(=O)NC(=O)c2ccc(N3CCC([C@@H](O)c4ccccc4-c4ccc(Cl)cc4)CC3)cc2)cc1S(=O)(=O)C(F)(F)F [AZD4320] + Cc1cc2ncnn2cc1Nc1ncc2c(n1)n(C1CCOCC1)c(=O)n2C [AZD7648] (first compound max 1 µM, 7x7, partner max 10 µM)
- combination Emax [1]: 0.976
- combination Emax [2]: 0.154
- combination Emax [3]: 0.474
- combination Emax [4]: 0.321
- combination Emax [5]: 0.205
- combination Emax [6]: 1
- combination Emax [7]: 0.386
- combination Emax [8]: 0.226
- combination Emax [9]: 0.558
- combination Emax [10]: 1
- combination Emax [11]: 0.243
- combination Emax [12]: 0.117
- combination Emax [13]: 0.305
- combination Emax [14]: 0.908
- combination Emax [15]: 0.0745
- combination Emax [16]: 0.737
- combination Emax [17]: 0.213
- combination Emax [18]: 0.245
- combination Emax [19]: 0.959
- combination Emax [20]: 0.797

SMILES: CN(CCO)CC[C@H](CSc1ccccc1)Nc1ccc(S(=O)(=O)NC(=O)c2ccc(N3CCC([C@@H](O)c4ccccc4-c4ccc(Cl)cc4)CC3)cc2)cc1S(=O)(=O)C(F)(F)F [AZD4320] + Cn1cnc2c(F)c(Nc3ccc(Br)cc3Cl)c(C(=O)NOCCO)cc21 [Selumetinib] (first compound max 1 µM, 7x7, partner max 3 µM)
- combination Emax [1]: 0.997
- combination Emax [2]: 0.216
- combination Emax [3]: 0.413
- combination Emax [4]: 0.358
- combination Emax [5]: 0.849
- combination Emax [6]: 1
- combination Emax [7]: 0.3
- combination Emax [8]: 0.321
- combination Emax [9]: 0.576
- combination Emax [10]: 1
- combination Emax [11]: 0.224
- combination Emax [12]: 0.22
- combination Emax [13]: 0.538
- combination Emax [14]: 0.984
- combination Emax [15]: 0.264
- combination Emax [16]: 0.631
- combination Emax [17]: 0.352
- combination Emax [18]: 0.241
- combination Emax [19]: 0.866
- combination Emax [20]: 0.962

SMILES: COc1nnc2ccc(N3CCC(c4ccc(OCCN5CCN(C)C(=O)[C@H]5C)cc4)CC3)nn12 [AZD5153] + C=CCn1c(=O)c2cnc(Nc3ccc(N4CCN(C)CC4)cc3)nc2n1-c1cccc(C(C)(C)O)n1 [AZD1775] (first compound max 1 µM, partner max 1 µM)
- combination Emax [1]: 0.899
- combination Emax [2]: 0.605
- combination Emax [3]: 0.681
- combination Emax [4]: 0.629
- combination Emax [5]: 0.734
- combination Emax [6]: 1
- combination Emax [7]: 0.668
- combination Emax [8]: 0.748
- combination Emax [9]: 0.615
- combination Emax [10]: 1
- combination Emax [11]: 0.939
- combination Emax [12]: 0.535
- combination Emax [13]: 0.707
- combination Emax [14]: 0.947
- combination Emax [15]: 0.731
- combination Emax [16]: 0.908
- combination Emax [17]: 0.447
- combination Emax [18]: 0.755
- combination Emax [19]: 0.985
- combination Emax [20]: 1

— the supplement of paper PMC11061612
